Assay results reported in patent US20100216753A1, “CONTROLLED RELEASE OF DRUGS INTO/THROUGH THE SKIN” (Galderma S.A., priority 2005, published 2010).

Assay: Distribution of the drug in human skin (Franz' cells)
Format: in vitro ADME
Settings: 16 hours after application on a human skin (Franz' cells)

## CCC(=O)O[C@]1(C(=O)CCl)[C@@H](C)C[C@H]2[C@@H]3CCC4=CC(=O)C=C[C@]4(C)[C@@]3(F)[C@@H](O)C[C@@]21C [Clobetasol-17-propionate]
  Skin distribution of the drug: accumulate in the Stratum corneum
